Tested on: T1, SCF^Skp2/Cks1
T1 construct: 6His-Skp2-(isoform 1, hu,FL),; GST-Skp1-(hu,FL), 6His-Cul1-; (hu,FL), UT-Rbx1-(hu,FL); 6His-Cks1-(hu,FL); 6His (N); GST (N); made in house
Assay: 'Live' SCF^Skp2/Cks1 (E3) p27 ubiquitination assay, ECL
Type: biochemical, human
Details: for shows up as inhibitor in R140 kinase inhibitor panel / IC50, E3 (SCF^Skp2/Cks1) assay ECL: 60 minute incubation; for shows up as inhibitor in R140 kinase inhibitor panel / inhibition in E3 assay, panel of 41 inhibitors: final E3 assay conditions; for IC50, E3 (SCF^Skp2/Cks1) assay ECL: 25 nM c-Myc p27, 5 nM E1, 1 μM E2, 25 nM E3 tetramer, 25 nM Cks1, 2 μM Ub, 100 μM ATP; for inhibition in E3 assay, panel of 41 inhibitors: R140 kinase inhibitor panel + PYR-41
Protocol: FIG. 30 (a): ‘Live’ SCF^Skp2/Cks1 Assay—ECL Inhibitor study—PYR-41 (E1 inhibitor).
FIG. 32: ‘Live’ SCF^Skp2/Cks1 Assay—ECL R140 Kinase inhibit or panel. Used 60 minute incubation; 25 nM c-Myc p27; anti-c-Myc capture for p27 (Millipore 05-274, 1/500); 5 nM E1; 1 μM E2 (HA); 25 nM E3 tetramer; 25 nM Cks1; 2 μM Ub; 100 μM ATP; streptavidin sulfo tag (MSD, R32AD-1, 1 μg/ml).
FIG. 34: ‘Live’ SCF^Skp2/Cks1 Assay—ECL follow up IC50s. Used 60 minute incubation; 25 nM c-Myc p27; anti c-Myc capture for p27 (Millipore 05-274, 1/500); 5 nM E1; 1 μM E2 (HA); 25 nM E3 tetramer; 25 nM Cks1; 2 μM Ub; 100 μM ATP; streptavidin sulfo tag (MSD, R32AD-1, 1 μg/ml). Titration of PYR41 (Calbiochem 662105) from 300 μM to 10 nM (control). Titration of Rottlerin, EGCG, AG538 and K252c from 300 μM to 10 nM.
Each of the assays in the p27 ubiquitination cascade (E1, E2 and E3) were tested against the E1 inhibitor PYR-41. No pre-charging of either the E1 or E2 was carried out prior to the introduction of the compound although in the E3 assay, p27 phosphorylation by CDK2/Cyclin E was carried out in the absence of inhibitor.
In order to test the feasibility of screening the E3 assay against a range of inhibitors, the assay was tested against a panel of 41 inhibitors (40 known kinase inhibitors and PYR-41) (FIG. 31). […] Using the same assay conditions, the E3 assay was tested against these inhibitors (FIG. 33).

T1 sequence (Q13309 whole entry, canonical isoform): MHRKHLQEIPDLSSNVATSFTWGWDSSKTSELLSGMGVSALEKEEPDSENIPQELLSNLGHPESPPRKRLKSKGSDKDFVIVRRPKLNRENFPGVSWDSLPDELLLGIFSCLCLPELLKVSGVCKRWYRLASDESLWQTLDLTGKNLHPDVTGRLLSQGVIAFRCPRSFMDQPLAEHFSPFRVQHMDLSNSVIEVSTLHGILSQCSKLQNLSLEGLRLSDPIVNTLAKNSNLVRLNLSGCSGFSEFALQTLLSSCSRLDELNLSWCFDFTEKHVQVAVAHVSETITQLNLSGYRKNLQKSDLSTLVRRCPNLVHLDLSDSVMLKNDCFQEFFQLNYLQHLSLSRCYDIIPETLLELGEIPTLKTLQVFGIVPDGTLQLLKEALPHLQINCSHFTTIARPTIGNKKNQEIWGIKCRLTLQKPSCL
T1 sequence (P63208 1-160 isoform P63208-2, further chain): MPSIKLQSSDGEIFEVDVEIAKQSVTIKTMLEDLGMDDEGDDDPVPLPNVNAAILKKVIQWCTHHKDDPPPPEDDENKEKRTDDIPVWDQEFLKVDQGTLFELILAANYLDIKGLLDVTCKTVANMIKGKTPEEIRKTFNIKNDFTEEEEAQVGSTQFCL
T1 sequence (Q13616 whole entry, further chain, canonical isoform): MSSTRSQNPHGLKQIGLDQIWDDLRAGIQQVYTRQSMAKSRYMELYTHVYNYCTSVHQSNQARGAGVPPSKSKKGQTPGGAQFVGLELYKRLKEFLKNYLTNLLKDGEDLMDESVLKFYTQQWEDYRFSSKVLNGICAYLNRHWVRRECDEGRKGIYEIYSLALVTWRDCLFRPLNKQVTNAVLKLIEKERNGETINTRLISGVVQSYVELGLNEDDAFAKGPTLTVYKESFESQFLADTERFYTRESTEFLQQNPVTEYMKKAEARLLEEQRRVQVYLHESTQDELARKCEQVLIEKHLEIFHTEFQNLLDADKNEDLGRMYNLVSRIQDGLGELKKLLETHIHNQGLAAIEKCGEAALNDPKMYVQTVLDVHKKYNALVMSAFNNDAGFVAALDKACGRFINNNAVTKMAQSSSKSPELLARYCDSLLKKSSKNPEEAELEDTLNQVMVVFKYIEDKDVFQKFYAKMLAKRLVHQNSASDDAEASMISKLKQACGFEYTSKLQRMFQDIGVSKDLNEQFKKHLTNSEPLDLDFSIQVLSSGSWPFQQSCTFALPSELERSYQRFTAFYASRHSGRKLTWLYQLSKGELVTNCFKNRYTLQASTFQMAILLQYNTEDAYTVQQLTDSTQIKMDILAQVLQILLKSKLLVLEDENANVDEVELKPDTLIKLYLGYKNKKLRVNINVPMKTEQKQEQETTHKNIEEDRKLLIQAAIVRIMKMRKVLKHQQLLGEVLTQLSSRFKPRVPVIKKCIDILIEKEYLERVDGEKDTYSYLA
T1 sequence (P62877 whole entry, further chain, canonical isoform): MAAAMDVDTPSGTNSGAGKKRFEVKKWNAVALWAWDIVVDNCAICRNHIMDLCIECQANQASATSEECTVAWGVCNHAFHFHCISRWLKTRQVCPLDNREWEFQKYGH
T1 sequence (P61024 whole entry, further chain, canonical isoform): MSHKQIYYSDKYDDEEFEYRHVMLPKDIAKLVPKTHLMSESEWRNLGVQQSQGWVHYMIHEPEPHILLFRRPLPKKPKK

Structure (SMILES) | shows up as inhibitor in R140 kinase inhibitor panel | IC50, E3 (SCF^Skp2/Cks1) assay ECL | inhibition in E3 assay, panel of 41 inhibitors
N#C/C(=C\c1ccc(O)c(O)c1)C(=O)c1ccc(O)c(O)c1 [AG538] | show up as inhibitors | – | –
O=C(O[C@@H]1Cc2c(O)cc(O)cc2O[C@@H]1c1cc(O)c(O)c(O)c1)c1cc(O)c(O)c(O)c1 [EGCG] | show up as inhibitors | in the μM range | moderate amounts of inhibition
O=C1NCc2c1c1c3ccccc3[nH]c1c1[nH]c3ccccc3c21 [K252c] | show up as inhibitors | false positive | moderate amounts of inhibition
CCOC(=O)c1ccc(N2NC(=O)/C(=C/c3ccc([N+](=O)[O-])o3)C2=O)cc1 [PYR-41] | – | – | > 80%
CC(=O)c1c(O)c(C)c(O)c(Cc2c(O)c3c(c(C(=O)/C=C/c4ccccc4)c2O)OC(C)(C)C=C3)c1O [Rottlerin] | show up as inhibitors | in the μM range | moderate amounts of inhibition
